Results as given in US20230149510A1, “METHOD FOR ALLEVIATING ARTHRITIS USING EPIDERMAL GROWTH FACTOR” (Lovin BioMed Co., Ltd., priority 2021, published 2023).

Key:
[1] = system: knee joint tissue of the hind leg, CII-induced RA; test: Histopathologic analysis of knee joint tissue of the hind leg, collagen-induced RA; type: in vivo, DBA/1 mice; settings: mice; for morphological observation of cartilage structure and surface: knee joint of hind leg after day 42, data not shown
Description: 2 mg/mL of a Chick type II collagen (CII) solution (Chondrex Inc., Cat. No. 20012) (in 10 mM acetic acid) was mixed with complete Freund's adjuvant (Sigma Aldrich, Cat. No. F5881-10ML) at a ratio of 1:1 (v/v), so as to obtain a first CII emulsion. 2 mg/mL of a Chick type CII solution was mixed with incomplete Freund's adjuvant (ChemCruzx, Cat. No. sc-24648) at a ratio of 1:1 (v/v), so as to obtain a second CII emulsion.
The female DBA/1 mice were divided into five groups, including one normal control group, one pathological control group, one comparative group, and two experimental groups (i.e., experimental groups 1 to 2) (n=6 mice in each group). 200 μL of the first CII emulsion was injected subcutaneously into the tail of the respective mouse of the pathological control group, the comparative group, and the two experimental groups. The mice were subjected to a boost injection using 200 μL of the second CII emulsion on the 21st day after the initial immunization, so as to induce the occurrence of RA. In addition, the rats of the normal control group were injected with an adjuvant solution (in PBS).
After completion of the boost injection, the respective mouse in the comparative group was intraperitoneally injected with 100 μL of 1% HA, the respective mouse in the experimental group 1 was intraperitoneally injected with 100 μL of the EGF solution (containing 20 μg/g EGF) prepared in section C of Example 1, the respective mouse in the experimental group 2 was intraperitoneally injected with 100 μL of the mixture solution (containing 20 μg/g EGF) prepared in section C of Example 1. Each mouse was administered once daily for a total period of 20 days.
After completion of the evaluation of RA severity as described in section C of this example, the mice in each group were sacrificed by virtue of 95% CO2 asphyxiation, and the knee joint tissue of the hind leg and the sole tissue were obtained from each mouse carcass. The knee joint tissue of the hind leg of each mouse was subjected to histological sectioning, hematoxylin-eosin staining, and microscopic observation in sequence according to the methods described in section F of Example 1.
Next, the pathological symptoms (i.e., inflammatory cell infiltration, synovial hyperplasia, and cartilage surface erosion) in the respective tissue section was assessed according to the method described in Deng G. M. et al. (2005), Nat Med., 11:1066-1072. The degrees of inflammatory cell infiltration, synovial hyperplasia, and cartilage surface erosion were scored on a scale from 1 to 4. The higher the scale, the higher the severity of the pathological symptom is.
The data thus obtained were analyzed according to the method described in section 1 of the “General Procedures”.

[2] = system: monosodium iodoacetate (MIA)-induced osteoarthritis (OA), right knee joint; test: Diameter of right knee joint in MIA-induced OA rats; type: in vivo, Sprague Dawley rats; settings: 30 μL intraarticular on day 3 and day 14, measured end of day 28 with caliper, FIG. 1
Description: A. Preparation of mixture containing EGF, CS, and HA EGF, CS, and HA were mixed in a weight ratio of 1:100:1000 in sterile water, so as to obtain a mixture containing EGF (20 μg/g), CS, and HA.
Male Sprague Dawley rats (6 weeks old, with a body weight of approximately 200 to 300 g) used in the following experiments were purchased from National Laboratory Animal Center, Taipei City, Taiwan. All the experimental mice were housed in an animal room under the following laboratory conditions: an alternating 12-hour light and 12-hour dark cycle, a temperature maintained at 21° C. to 24° C., and a relative humidity maintained at 45% to 70%. Furthermore, water and feed were provided ad libitum for all the experimental mice. All experimental procedures involving the experimental mice were in compliance with the legal provision of the Institutional Animal Care and Use Committee of National Chung Hsing University, Taiwan, and were carried out according to the Guide for the Care and Use of Laboratory Animals of National Institutes of Health (NIH).
The Sprague Dawley rats were divided into five groups, including one normal control group, one pathological control group, one comparative group, and two experimental groups (i.e., experimental groups 1 to 2) (n=5 rats in each group). […]
The data thus obtained were analyzed according to the method described in section 1 of “General Procedures”.

Row | Substance | morphological observation of cartilage structure and surface [1] | diameter of the right knee joint [2] | scale of cartilage surface erosion (scale 1 to 4) ([1]; knee joint of hind leg, FIG. 7) | scale of inflammatory cell infiltration (scale 1 to 4) ([1]; knee joint of hind leg, FIG. 7) | scale of synovial hyperplasia (scale 1 to 4) ([1]; knee joint of hind leg, FIG. 7)
1 | hyaluronic acid [HA, reference compound] | the cartilage structure was partially damaged, and a partially intact cartilage surface was observed | lower than that determined in the pathological control group |  |  | 
2 | EGF: Epidermal growth factor (Cat. No. 02-108, Joycom Bio-chem) dissolved in PBS, 20 μg/g EGF; given to experimental group 1 (NSDSECPLSHDGYCLHDGVCMYIEALDKYACNCVVGYIGERCQYRDLKWWELR; UniProt P01133 971-1023, looked up) | the cartilage structure was partially damaged, and a partially intact cartilage surface was observed | lower than that determined in the pathological control group | apparently or significantly lower than those determined in the pathological control group | apparently or significantly lower than those determined in the pathological control group | apparently or significantly lower than those determined in the pathological control group
